We go through 22 compounds from article PMC6104465, “Synthesis and in vitro and in vivo evaluation of urea-based PSMA inhibitors with increased lipophilicity” (EJNMMI Research, 2018).

Data set [1] concerns the target T1, PSMA (Homo sapiens, UniProt Q04609).
T1 construct: endogenous in cells; host or cells: LNCaP cells (CLS: 300265)
Description: competitive binding assay on LNCaP cells (radioligand 125I-IBA). Conditions: read-out: IC50 (affinity to PSMA). How it is done:
The effect of the lipophilic (aromatic) modifications in the spacer unit of the acetylated PSMA inhibitors 1–9 on the IC50 to PSMA was determined in a competitive binding assay on PSMA-expressing LNCaP cells.
The PSMA affinity was determined as described previously. In brief, 150,000 LNCaP cells were seeded into 24-well plates one day prior to the experiment. […] After removal of the supernatant, the cells were washed once with HBSS and subsequently lysed with 1 n NaOH. Both fractions were quantified in a γ-counter. Using the Graphpad Prism software, binding curves were plotted and IC50 values were extracted. Three independent determinations were performed in triplicate for each compound.

In data set [2] the target is T2, human serum albumin (Homo sapiens, UniProt P02768).
T2 construct: purchased Daicel Chemical Industries, purchased from Chiral Technologies Europe (Illkirch, France) Chiralpak HSA (5 μm, 50 × 3 mm)
Further details: method as in Valko et. al. or Yamazaki et al. [3, 4]. As to conditions: calibration reference substances; ref Valko et. al. or Yamazaki et al. [3, 4]; cited from earlier work.

In data set [3] the target is T2, human serum albumin. Nature of the data set: human serum albumin binding, HPLC on Chiralpak HSA column. In kind it is in vitro ADME. As to conditions: for Log K HSA: calibration reference substances, logarithmic K from the literature HSA binding, ref [3, 4]; for bound to HSA: HPLC, Chiralpak HSA column. How it is done:
High in vivo plasma protein binding increases the plasma half-life of the radiopharmaceutical and therefore might offer beneficiary effects on the tracer distribution (higher uptake into target tissue) but can also lead to increased background activity especially at early time points. In general, drugs binding to plasma proteins with high affinity feature moderate to high lipophilicity, in many cases due to halogenated aromatic groups. […] Human albumin binding was determined, applying a modified HPLC method.
Mobile phase A was an ammonium acetate buffer (50 mM, pH 6.9), mobile phase B was 2-propanol, the flow rate was 0.5 mL/min, and equilibration with 0% B for 3 min was followed by a gradient of 0% B to 20% B to the end of each run within 45 min. To check the column performance and to conduct the non-linear regression, the HSA column was calibrated each day with nine reference substances. Afterward, the PSMA inhibitors with unknown HSA binding were measured. The retention times and factors together with correlation curve are found in Additional file 1.
HSA binding experiments were performed as previously described. […] For each run, 10 µL of the solution containing the inhibitor was injected into the RP-HPLC system and the retention time measured. […] Non-linear regression was established with OriginPro 2016G.

Data set [4] has as its target T1, PSMA. As to conditions: LNCaP cells 150,000 cells/well, 4 °C, 1 h, c(125I-IBA) = 0.2 nM; mean ± SD; ref [17]; read-out: IC50 (affinity to PSMA); cited from earlier work.
[5] abbreviates: LNCaP cells 150,000 cells/well, 4 °C, 1 h, c(125I-IBA) = 0.2 nM, mean ± SD (n = 3).

Read-outs that look alike come from different tables or passages of the source.

T1 sequence (Q04609 whole entry): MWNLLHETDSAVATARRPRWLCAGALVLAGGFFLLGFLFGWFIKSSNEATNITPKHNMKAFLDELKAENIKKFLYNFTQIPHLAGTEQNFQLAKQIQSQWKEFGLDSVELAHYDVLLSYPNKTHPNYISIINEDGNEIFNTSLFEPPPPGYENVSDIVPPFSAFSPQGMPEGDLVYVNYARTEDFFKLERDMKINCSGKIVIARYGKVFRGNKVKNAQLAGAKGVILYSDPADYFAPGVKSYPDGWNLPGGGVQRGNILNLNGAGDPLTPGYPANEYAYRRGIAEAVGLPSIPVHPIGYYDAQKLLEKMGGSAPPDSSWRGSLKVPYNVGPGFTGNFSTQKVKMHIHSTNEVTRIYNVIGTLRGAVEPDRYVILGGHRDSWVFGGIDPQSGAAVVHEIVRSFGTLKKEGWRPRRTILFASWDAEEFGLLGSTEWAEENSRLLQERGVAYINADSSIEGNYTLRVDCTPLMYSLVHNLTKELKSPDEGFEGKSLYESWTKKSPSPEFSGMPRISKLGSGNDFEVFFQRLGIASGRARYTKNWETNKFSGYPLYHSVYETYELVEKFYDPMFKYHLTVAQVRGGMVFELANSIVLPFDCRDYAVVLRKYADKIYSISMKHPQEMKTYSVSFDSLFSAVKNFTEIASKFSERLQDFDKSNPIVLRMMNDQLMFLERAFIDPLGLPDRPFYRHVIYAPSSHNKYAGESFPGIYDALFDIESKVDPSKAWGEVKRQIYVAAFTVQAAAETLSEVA
T2 sequence (P02768 25-609): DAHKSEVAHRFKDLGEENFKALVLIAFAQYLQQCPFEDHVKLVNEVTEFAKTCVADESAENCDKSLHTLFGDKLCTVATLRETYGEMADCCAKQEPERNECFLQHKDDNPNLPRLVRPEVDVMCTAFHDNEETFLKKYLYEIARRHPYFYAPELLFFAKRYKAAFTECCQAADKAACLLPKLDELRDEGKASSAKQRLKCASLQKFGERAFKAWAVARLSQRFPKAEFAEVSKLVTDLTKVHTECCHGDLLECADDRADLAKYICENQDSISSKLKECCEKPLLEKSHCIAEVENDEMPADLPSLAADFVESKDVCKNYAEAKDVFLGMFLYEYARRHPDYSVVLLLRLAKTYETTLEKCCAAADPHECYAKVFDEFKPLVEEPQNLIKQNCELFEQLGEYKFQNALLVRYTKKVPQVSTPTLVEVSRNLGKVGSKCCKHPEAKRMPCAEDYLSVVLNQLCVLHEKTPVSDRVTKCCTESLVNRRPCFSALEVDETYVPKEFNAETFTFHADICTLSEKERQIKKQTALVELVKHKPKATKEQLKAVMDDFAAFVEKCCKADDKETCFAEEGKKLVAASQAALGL

With `CC(=O)N[C@@H](Cc1ccc(O)cc1)C(=O)N[C@@H](Cc1ccc([N+](=O)[O-])cc1)C(=O)N[C@@H](CCCCNC(=O)CCCCCCC(=O)NCCCC[C@H](NC(=O)N[C@@H](CCC(=O)O)C(=O)O)C(=O)O)C(=O)O` [PSMA inhibitor 7, Ac-Y(4-NO2-F)K(Sub-KuE)], the IC50 at PSMA [1] worked out at 7.4 ± 0.5 nM.

On to `CC(=O)N[C@@H](Cc1ccc(O)cc1)C(=O)N[C@@H](Cc1ccc2ccccc2c1)C(=O)N[C@@H](CCCCNC(=O)CCCCCCC(=O)NCCCC[C@H](NC(=O)N[C@@H](CCC(=O)O)C(=O)O)C(=O)O)C(=O)O` [PSMA inhibitor 6, Ac-Y-2-Nal-K(Sub-KuE)], for which, on PSMA [1], the IC50 came out at 3.9 ± 1.7 nM.

“^natGa-DOTAGA-y-2-nal-k((I-f)-Glut-KuE) [^natGa-11]”: the IC50 on PSMA [1] (setting [5]) worked out at 9.3 ± 2.9 nM. Turning to `O=C(O)c1ccccc1` [Benzoic Acid], the “Lit. HSA% (literature value of human serum albumin binding)” value (“Lit. HSA%” for short) on human serum albumin [2] is reported as 34.27%. For `O=C(O)CC[C@H](NC(=O)N[C@@H](CCCCNC(=O)CCCCCCC(=O)NCCCC[C@@H](NC(=O)[C@@H](Cc1ccc2ccccc2c1)NC(=O)[C@@H](Cc1ccc(O)cc1)NC(=O)CCC(C(=O)O)N1CCN(CC(=O)O)CCN(CC(=O)O)CCN(CC(=O)O)CC1)C(=O)O)C(=O)O)C(=O)O` (some centres unmarked) [PSMA inhibitor 10, DOTAGA-y-2-nal-k(Sub-KuE)], on PSMA [1] (setting [5]), the IC50 was found to be 8.5 ± 2.5 nM.

For the compound `CC(=O)N[C@@H](Cc1ccc(O)cc1)C(=O)N[C@@H](Cc1cccc2ccccc12)C(=O)N[C@@H](CCCCNC(=O)CCCCCCC(=O)NCCCC[C@H](NC(=O)N[C@@H](CCC(=O)O)C(=O)O)C(=O)O)C(=O)O` [PSMA inhibitor 5, Ac-Y-1-Nal-K(Sub-KuE)], the IC50 on PSMA [1] was found to be 4.3 ± 0.9 nM. On to `CCCN(CCC)S(=O)(=O)c1ccc(C(=O)O)cc1` [Probenecid], for which, at human serum albumin [2], the “Lit. HSA%” value was 95.00%. For the same compound, on human serum albumin [3], the “Log K HSA” value was found to be 1.20. Turning to `CC(=O)N[C@@H](Cc1ccc(O)cc1)C(=O)N[C@@H](Cc1ccccc1)C(=O)N[C@@H](CCCCNC(=O)CCCCCCC(=O)NCCCC[C@H](NC(=O)N[C@@H](CCC(=O)O)C(=O)O)C(=O)O)C(=O)O` [PSMA inhibitor 1, Ac-YFK(Sub-KuE)], the IC50 on PSMA [1] was found to be 15 ± 1.3 nM.

As to “^natLu-DOTAGA-y-2-nal-k((I-f)-Glut-KuE) [^natLu-11]”, the “bound to HSA” value at human serum albumin [3] came to 97%. For the same compound, at PSMA [1] (setting [5]), the IC50 amounted to 6.1 ± 1.6 nM. Regarding `Oc1ccccc1` [Phenol], the “Lit. HSA%” value at human serum albumin [2] is reported as 20.69%. At human serum albumin [3], the “Log K HSA” value is -0.59. `CC(=O)N[C@@H](Cc1ccc(O)cc1)C(=O)N[C@@H](Cc1ccc(O)c(C)c1)C(=O)N[C@@H](CCCCNC(=O)CCCCCCC(=O)NCCCC[C@H](NC(=O)N[C@@H](CCC(=O)O)C(=O)O)C(=O)O)C(=O)O` [PSMA inhibitor 9, Ac-Y(3-CH3-Y)K(Sub-KuE)]: the IC50 on PSMA [1] is 7.2 ± 0.9 nM. On to `Nc1ccccc1` [Aniline], for which the “Lit. HSA%” value on human serum albumin [2] was 14.06%. Moreover, the “Log K HSA” value at human serum albumin [3] was -0.79. For the compound “^natGa-DOTAGA-y-2-nal-k(Sub-KuE) [^natGa-10]”, the IC50 on PSMA [1] (setting [5]) was determined as 9.8 ± 3.2 nM. As for `O=C(O)CC[C@H](NC(=O)N[C@@H](CCCCNC(=O)CCCCCCC(=O)NCCCC[C@@H](NC(=O)[C@@H](Cc1ccccc1)NC(=O)[C@@H](Cc1ccc(O)c(I)c1)NC(=O)CCC(C(=O)O)N1CCN(CC(=O)O)CCN(CC(=O)O)CCN(CC(=O)O)CC1)C(=O)O)C(=O)O)C(=O)O` (some centres unmarked) [PSMA I&T, DOTAGA-(I-y)fk(Sub-KuE)], the half-inhibitory concentration (IC50) at PSMA [4] was 10.2 ± 3.5 nM. “^natLu-DOTAGA-y-2-nal-k(Sub-KuE) [^natLu-10]”: the “bound to HSA” value on human serum albumin [3] is 83%. The IC50 at PSMA [1] (setting [5]) was 2.1 ± 0.8 nM.

Take `CC(=O)N[C@@H](Cc1ccc(O)cc1)C(=O)N[C@@H](Cc1cc(I)c(O)c(I)c1)C(=O)N[C@@H](CCCCNC(=O)CCCCCCC(=O)NCCCC[C@H](NC(=O)N[C@@H](CCC(=O)O)C(=O)O)C(=O)O)C(=O)O` [PSMA inhibitor 8, Ac-Y(3,5-di-I-Y)K(Sub-KuE)]: the IC50 at PSMA [1] came to 3.8 ± 0.6 nM. As to “^natLu-DOTAGA-(I-y)fk(Sub-KuE) [^natLu-PSMA I&T]”, the “bound to HSA” value at human serum albumin [3] was determined as 79%. On PSMA [4], the IC50 was 7.9 ± 2.4 nM. With `O=C(O)CC[C@H](NC(=O)N[C@@H](CCCCNC(=O)[C@@H](Cc1ccc(I)cc1)NC(=O)CCCC(=O)NCCCC[C@@H](NC(=O)[C@@H](Cc1ccc2ccccc2c1)NC(=O)[C@@H](Cc1ccc(O)cc1)NC(=O)CCC(C(=O)O)N1CCN(CC(=O)O)CCN(CC(=O)O)CCN(CC(=O)O)CC1)C(=O)O)C(=O)O)C(=O)O` (some centres unmarked) [PSMA inhibitor 11, DOTAGA-y-2-nal-k((I-f)-Glut-KuE)], the IC50 on PSMA [1] (setting [5]) was 4.6 ± 0.9 nM. Turning to “^natGa-DOTAGA-(I-y)fk(Sub-KuE) [^natGa-PSMA I&T]”, the IC50 at PSMA [4] is 9.3 ± 3.3 nM. In the case of `CC(=O)N[C@@H](Cc1ccc(O)cc1)C(=O)N[C@@H](Cc1c[nH]c2ccccc12)C(=O)N[C@@H](CCCCNC(=O)CCCCCCC(=O)NCCCC[C@H](NC(=O)N[C@@H](CCC(=O)O)C(=O)O)C(=O)O)C(=O)O` [PSMA inhibitor 2, Ac-YWK(Sub-KuE)], the IC50 on PSMA [1] was 6.8 ± 3.3 nM.

As for `CC(=O)N[C@@H](Cc1ccc(O)cc1)C(=O)N[C@@H](Cc1ccc(-c2ccccc2)cc1)C(=O)N[C@@H](CCCCNC(=O)CCCCCCC(=O)NCCCC[C@H](NC(=O)N[C@@H](CCC(=O)O)C(=O)O)C(=O)O)C(=O)O` [PSMA inhibitor 4, Ac-Y-(Biphenyl-A)K(Sub-KuE)], at PSMA [1], the IC50 turned out to be 139 ± 117 nM. For the compound `COc1ccc(Cl)cc1C(=O)NCCc1ccc(S(=O)(=O)NC(=O)NC2CCCCC2)cc1` [Glibenclamide], at human serum albumin [2], the “Lit. HSA%” value is 99.00%. Moreover, at human serum albumin [3], the “Log K HSA” value is on record as 1.69.
